Source: patent US11890287B2, “Therapeutic compounds and compositions for treating social disorders and substance use disorders” (Kinoxis Therapeutics Pty Ltd, priority 2015, dated 2024)

Experiments:
male Sprague Dawley rats = assay: Methamphetamine IVSA under a progressive ratio schedule; format: in vivo, rat
Description: Following recovery from surgery, rats were able to self-administer intravenous METH during 2 hour sessions. At the beginning of each session, catheters were flushed with 0.1 ml heparinised saline (10 IU/ml) and were connected to the infusion line. Lever extension and house light illumination indicated the initiation of the session. […] Depression of the active lever delivered a 3 s infusion of METH (0.1 mg/kg/infusion, 50 μL), illuminated the cue light, and extinguished the house light. The house light was extinguished for a 20 second time period during which depression of the active lever had no programmed consequences. […] At the end of each session, the infusion line was disconnected and catheters were flushed with 0.2 ml of cephazolin sodium in heparinized saline solution.
Rats acquired self-administration of METH during daily 2 hour fixed ratio 1 scheduled sessions. To avoid overdose, each rat was limited to a maximum of 60 infusions per session. Rats continued under the FR-1 schedule until stable responding was met as indicated by less than 10% variability in number of infusions and active lever presses compared to the day prior. Stable self-administration baselines were achieved within 10 days, after which rats advanced to the progressive ratio schedule.
Under the progressive ratio (PR) schedule, METH infusions were delivered according to the ratio: ((5×(e^reinforcer #×0.2)−5). The number of active lever presses that were required to receive one METH infusion increased according to the following sequence: 1, 2, 4, 6, 9, 12, 15, 20, 25, 32, 40, 50, 62, 77, 95, 118, 145, 178, 219, 268 (Cornish et al., 2005). The daily PR sessions were completed after 2 hours or if an infusion had not been self-administered for 60 minutes. Rats continued with PR sessions until lever pressing stabilised, which was determined by less than 10% variability in number of infusions and active lever presses for two consecutive days. Lever pressing stabilised after 7 days. During this time, the rats were given a sham saline i.p. (1 ml/kg) injection prior to the session. […]

rat hypothalamic neurons = assay: Signalling in rat hypothalamic neurons; format: cell-based
OTR = target: T1, OTR (Homo sapiens, UniProt P30559); assay: IP1 signalling on OTR HEK cells; format: cell-based
T1 construct: expressed in transfected cells; host or cells: HEK cells

[1] = system: Fos-positive cells in brain regions of interest; assay: Fos immunohistochemistry in rat brain; format: in vivo, male Wistar rats
Description: Fos immunohistochemistry was used to identify the neural “signature” of SOC-1 (5 mg/kg) in rat brain relative to injections of peripheral oxytocin (OT) (1 mg/kg). SOC-1 produces a similar overall pattern of neural activation and behavioural effects as OT. However, the effects are much larger and additional areas are activated by SOC-1 that are implicated in the regulation of social behaviour (e.g. lateral septum, medial preoptic area and supraoptic nucleus). SOC-1 produces powerful activation of OT-containing neurons in both the supraoptic (FIG. 6: (A)=vehicle; (B)=oxytocin; and (C)=SOC-1) and paraventricular nucleus of the hypothalamus.

[2] = In vitro plasma stability assay; format: in vitro ADME; settings: human, incubated at body temperature
BALB/C mice = assay: Social preference test, BALB/C mouse model of autism spectrum disorders; format: in vivo; settings: 5 mg/kg IP
Excerpt: BALB/C mice have autistic-like behaviours (including reduced interest in social stimuli) compared to standard C57BL/6 mice. In a social preference test, BALB/C mice show no preference for interacting with a social stimulus (a novel mouse) over an object stimulus (a novel object), whereas C57BL/6 mice show a robust preference.

Wistar rats = assay: Biotelemetry of body temperature and heart rate; format: in vivo, rat
Description: FIG. 7—The monitored body temperatures of Wistar rats administered vehicle, SOC-1 (5 mg/kg), or SOC-1 and the V1A receptor antagonist SR49059 (10 mg/kg).
FIG. 8—The monitored heart rates for Wistar rats administered vehicle, SOC-1 (5 mg/kg), or SOC-1 and the V1A receptor antagonist SR49059 (10 mg/kg).
However, the rats were not ataxic or comatose, they were simply in a relaxed quiescent state. […] Effects on body temperature and other behaviours are not blocked by pre-treatment with the vasopressin V1A receptor antagonist SR49059 (10 mg/kg). […] The data in these two studies was gathered with DataSciences International biotelemetry system.

T1 sequence (P30559 whole entry): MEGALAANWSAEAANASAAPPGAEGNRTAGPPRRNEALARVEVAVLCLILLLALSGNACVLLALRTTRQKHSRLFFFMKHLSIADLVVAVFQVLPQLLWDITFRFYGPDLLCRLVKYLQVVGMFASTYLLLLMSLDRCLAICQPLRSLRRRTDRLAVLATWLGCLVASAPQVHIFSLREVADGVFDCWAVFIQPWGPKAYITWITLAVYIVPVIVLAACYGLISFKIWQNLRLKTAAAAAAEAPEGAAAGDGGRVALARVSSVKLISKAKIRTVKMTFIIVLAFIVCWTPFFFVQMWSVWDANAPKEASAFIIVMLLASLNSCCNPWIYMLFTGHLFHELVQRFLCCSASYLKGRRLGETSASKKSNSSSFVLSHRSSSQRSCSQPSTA

Cl.Cn1ncc2c1Nc1ccccc1NC2 [SOC-1]
active lever pressing under a PR schedule (male Sprague Dawley rats; 5 mg (p=0.043) and 10 mg/kg (p=0.007) IP vs vehicle): significantly reduced active lever pressing
infusion breakpoint (male Sprague Dawley rats; 10 mg/kg IP, p=0.001 vs vehicle): significant reduction
locomotor activity (male Sprague Dawley rats; 10 mg/kg IP, p=0.005 vs vehicle): significant reduction
Ca^2+ levels (rat hypothalamic neurons): did not reliably alter Ca^2+ levels
IP1 levels (rat hypothalamic neurons): did not alter IP1 levels
basal cAMP (rat hypothalamic neurons): able to decrease basal cAMP
forskolin-stimulated cAMP (rat hypothalamic neurons): did not reliably decrease forskolin-stimulated cAMP
agonist, antagonist or positive allosteric modulator activity at OTR (OTR): not an agonist or antagonist at OTRs, nor a positive allosteric modulator of the OTR
Fos expression in the oxytocin-positive cells in the supraoptic nucleus of the hypothalamus (SON) ([1]; 5 mg/kg): strongly activates Fos expression
Mean number of Fos-positive cells, BNST (dorsolateral division) ([1]; OT 1 mg/kg, SOC-1 5 mg/kg): 10.25
Mean number of Fos-positive cells, BNST (middle anterior part)) ([1]; OT 1 mg/kg, SOC-1 5 mg/kg): 7
Mean number of Fos-positive cells, Central nucleus of the amygdala ([1]; OT 1 mg/kg, SOC-1 5 mg/kg): 14.33
Mean number of Fos-positive cells, Lateral Parabrachial nucleus ([1]; OT 1 mg/kg, SOC-1 5 mg/kg): 12.91
Mean number of Fos-positive cells, Lateral septum (ventral) ([1]; OT 1 mg/kg, SOC-1 5 mg/kg): 34.17
Mean number of Fos-positive cells, Locus Ceruleus ([1]; OT 1 mg/kg, SOC-1 5 mg/kg): 8.08
Mean number of Fos-positive cells, Medial preoptic area ([1]; OT 1 mg/kg, SOC-1 5 mg/kg): 10.30
Mean number of Fos-positive cells, Median preoptic nucleus ([1]; OT 1 mg/kg, SOC-1 5 mg/kg): 7.08
Mean number of Fos-positive cells, Nucleus of Solitary Tract ([1]; OT 1 mg/kg, SOC-1 5 mg/kg): 17.58
Mean number of Fos-positive cells, PAG (ventrolateral) ([1]; OT 1 mg/kg, SOC-1 5 mg/kg): 8.58
Mean number of Fos-positive cells, Paraventircular nucleus ([1]; OT 1 mg/kg, SOC-1 5 mg/kg): 47.18
Mean number of Fos-positive cells, Supraoptic nucleus ([1]; OT 1 mg/kg, SOC-1 5 mg/kg): 15.42
Mean percent of OT cells that were Fos positive, Paraventircular nucleus ([1]; OT 1 mg/kg, SOC-1 5 mg/kg): 23.41%
Mean percent of OT cells that were Fos positive, Supraoptic nucleus ([1]; OT 1 mg/kg, SOC-1 5 mg/kg): 32.59%
half-life at 500 nM [2]: > 6 h
time spent investigating the object stimulus (a novel object) (BALB/C mice): significantly increased the amount of time the BALB/C mice spent investigating the object stimulus
time spent investigating the social stimulus (a novel mouse) (BALB/C mice): significantly increased the amount of time BALB/C mice spent investigating the social stimulus
body temperature (Wistar rats; 5 mg/kg): modest hypothermia
heart rate (Wistar rats; 5 mg/kg): no effect
hypothermia at higher ambient temperatures (Wistar rats; 30° C.): abolished
